# Read-outs that look alike come from different tables or passages of the source.
# Columns and labels:
# [1] = human, in vivo
# Method: (§1) Peripheral blood samples were collected over six time points in the first 8 h of Cycle 1, Day 1 (C1D1), and again on C1D15. Pre-treatment Day 1 levels were obtained with every subsequent cycle.
# [2] = tested on: cell line derived xenografts from breast carcinomas; design: method as in PMID 33398478; settings: mice-bearing established human tumor xenografts; cited from earlier work
# [3] = tested on: cell line derived xenografts from lung carcinomas; design: method as in Pacylex Inc., data on file; settings: mice-bearing established human tumor xenografts, ref Pacylex Inc., data on file; cited from earlier work
# [4] = tested on: human AML; design: method as in doi:10.1182/blood-2022-170544; settings: murine tail-vein injection models of human AML; cited from earlier work
# [5] = design: method as in Pacylex, data on file; settings: preclinical models; ref Pacylex, data on file; cited from earlier work
# [6] = tested on: off-target kinase; design: method as in doi:10.1182/blood-2019-124934; settings: cited from earlier work
# [7] = tested on: ADP-ribosylation factor 6 (ARF6); design: method as in Pacylex, data on file; settings: cultured colon cancer cells; ref Pacylex, data on file; cited from earlier work
# [8] = tested on: dogs; settings: dog, in vivo; cited from earlier work
# [9] = Plasma pharmacokinetics in phase I patients (UPLC-MS/MS); settings: beyond Day 15
# Method: as §1
structure (smiles),measurement,setting,value
Cc1c(NS(=O)(=O)c2c(Cl)cc(-c3ccnc(N4CCNCC4)c3)cc2Cl)c(CC(C)C)nn1C [zelenirstat],Plasma concentrations (Cmax and AUC values) in patients on PPIs compared to patients not taking PPIs,[1],tended to be lower
same,Systemic exposure (Cmax and AUC values) versus dose,[1],tended to increase with increasing dose
same,time to steady state (visual observation of pre-dose concentrations),[1],8 to 15 days
same,accumulation following repeated administration,[1]; 14 day,< 2 fold
same,accumulation ratio for AUC0 − 24 (ArAUC0−24),[1]; 14 day,1.0-1.9
same,accumulation ratio for Cmax (ArCmax),[1]; 14 day,0.41-1.72
same,accumulation ratios for both ArCmax and ArAUC0−24,[1]; 14 days,3-6 fold
same,time to steady state,[1]; po,≤ 15 days
same,"AUC0 − 24 (h*ng/mL) (mean, SD)","[1]; po, 20 mg",2066 (387) h*ng/mL
same,"Cmax (ng/ml) (mean, SD)","[1]; po, 20 mg",276 (117) ng/ml
same,"Tmax (h) (median, range)","[1]; po, 20 mg",1 (0.5–2.1) h
same,"t1/2 (h) (mean, SD)","[1]; po, 20 mg",7.4 (2.0) h
same,"AUC0 − 24 (h*ng/mL) (mean, SD)","[1]; po, 40 mg",7060 (6711) h*ng/mL
same,"Cmax (ng/ml) (mean, SD)","[1]; po, 40 mg",774 (720) ng/ml
same,"t1/2 (h) (mean, SD)","[1]; po, 40 mg",9.7 (3.0) h
same,"AUC0 − 24 (h*ng/mL) (mean, SD)","[1]; po, 70 mg",6613 (3526) h*ng/mL
same,"Cmax (ng/ml) (mean, SD)","[1]; po, 70 mg",467 (257) ng/ml
same,"Tmax (h) (median, range)","[1]; po, 70 mg",4.1 (4.0-7.9) h
same,"AUC0 − 24 (h*ng/mL) (mean, SD)","[1]; po, 100 mg","18,936 (9188) h*ng/mL"
same,"Cmax (ng/ml) (mean, SD)","[1]; po, 100 mg",2188 (1037) ng/ml
same,"Tmax (h) (median, range)","[1]; po, 100 mg",2.0 (2.0-3.8) h
same,"t1/2 (h) (mean, SD)","[1]; po, 100 mg",8.0 (2.3) h
same,"AUC0 − 24 (h*ng/mL) (mean, SD)","[1]; po, 140 mg",8150 (2846) h*ng/mL
same,"Cmax (ng/ml) (mean, SD)","[1]; po, 140 mg",1335 (964) ng/ml
same,"Tmax (h) (median, range)","[1]; po, 140 mg",2.0 (1.0–2.0) h
same,"t1/2 (h) (mean, SD)","[1]; po, 140 mg",10.4 (5.5) h
same,"AUC0 − 24 (h*ng/mL) (mean, SD)","[1]; po, 210 mg","27,558 (13,349) h*ng/mL"
same,"Cmax (ng/ml) (mean, SD)","[1]; po, 210 mg",2935 (1047) ng/ml
same,"Tmax (h) (median, range)","[1]; po, 210 mg",2.0 (1.0-3.9) h
same,"t1/2 (h) (mean, SD)","[1]; po, 210 mg",7.7 (3.4) h
same,xenograft tumor response,[2],tumor growth inhibition
same,xenograft tumor response,[3],tumor growth inhibition
same,leukemic cell burden,[4],reduced the leukemic cell burden
same,plasma protein binding,[5],highly bound to plasma protein
same,off-target kinase inhibition,[6],no relevant off-target kinase inhibition
same,myristoylation of ARF6,[7],inhibits the myristoylation
same,toxicities in formal toxicologic evaluation,[8],acute gastrointestinal and hematologic toxicities
same,accumulation over multiple cycles (pre-dose concentrations),[9],no accumulation was apparent beyond Day 15

# — paper PMC11327210, “A first-in-human phase I trial of daily oral zelenirstat, a N-myristoyltransferase inhibitor, in patients with advanced solid tumors and relapsed/refractory B-cell lymphomas” (Investigational New Drugs, 2024)
